Measurements: patent US10875898B2, “Bioactive protein, use thereof and method for its production” (Koppert B.V., priority 2014, dated 2020)

Experiments:
Botrytis cinerea = assay: spore germination in Potato Dextrose Broth; type: cell-based; settings: 5 μM HYTLO1, 25° C., 24 hours, PDB
Procedure: (§1) FIG. 3: HYTLO1 antifungal activity. Spore of the pathogens Botrytis cinerea and Alternaria spp. and of the biocontrol agent Trichoderma harzianum strain MK1-KV966 were germinated at 25° C. for 24 hours in Potato Dextrose Broth (PDB) containing 5 μM of HYTLO1 and compared with those germinated in PDB plus the same solvent as the control.

Alternaria spp. = assay: spore germination in Potato Dextrose Broth; type: cell-based; settings: 5 μM HYTLO1, 25° C., 24 hours, PDB
Procedure: as §1

tomato = tomato root development (seeds, cuttings); type: in vivo
Procedure: FIG. 9: Effect of purified HYTLO1 application on tomato plant and root development. Tomato roots (left) and tomato cuttings (right) were dipped in a HYTLO1 solution of 0.018 μM.
In order to investigate the effect of HYTLO1 on the development of plants, either at the level of seed germination, germling formation and survival, root formation, stem elongation and thickness, foliar development, as well as general plant size, various experiments were performed with the purified protein. […] The protein clearly stimulated rhizogenesis on different plants. […] Experiments on plants were performed in vivo by watering and spraying tomato plants with a HYTLO1 0.01 μM solution as described in the legend of FIG. 10. In these experiments, the effect of HYTLO1 was also compared with that of the commercial biocontrol strain T. harzianum T22 (applied as spore suspension according the typical application rate of commercial products) and that of the germinating hormone 1-naphthaleneacetic acid (GERMON E—produced by L. Gobbi, Italy) (applied at the typical application rate of commercial products). Applications were made once per week for one month by watering the tomato plants. Results, expressed in terms of plant height and length, root length and weight, number of leaves, stem diameter and weight, are combined and shown in FIG. 10 and FIG. 11.

Cucumis sativus = assay: seed germination of cucumber on MS agar; type: in vivo; settings: 10^−8 M in agar medium
Procedure: FIG. 12: Effect of purified HYTLO1 on the growth of Arabidopsis (A), percentage seed germination of cucumber (B) and plantlet development of Lotus japonicus (C). A: Arabidopsis thaliana (Columbia-0: Col-0) seeds were sown in Levington's F2 compost plus sand (JFC Munro, Devon; http://www.jfcmonro.com) and chilled for 2 days at 4° C. Plants were grown under short-day conditions (10 h light) in a controlled environment chamber, at 22° C. during the day and 18° C. at night with 60% relative humidity for 5-6 weeks before transplanting. Ten ml of sterile solutions of HYTLO1 were drenched every two days at concentrations 0.072 μg/ml (0.01 μM) for one month in each pot containing 100 ml of soil and 1 Arabidopsis plant. Untreated plants were used as controls. B: Sterile cucumber seeds were placed on magenta box containing half-strength Murashige and Skoog salt (MS) medium (ICN Biomedicals) containing 1% agar and 1.5% sucrose, adjusted to pH 5.7, and vernalized for 2 days at 4° C. in the absence of light. A sterile solutions of HYTLO1 was added to the substrate at final concentration of 10^−8 M before the solidification of agar. C: The same concentration of HYTLO1 was used in the agarized medium used for the L. japonicus test. […]

cucumber = assay: combined application of HYTLO1 and Trichoderma spp. strains on cucumber growth promotion; type: in vivo; settings: 20 days after seed coating
Procedure: The results are shown in Table 2 and expressed in terms of increased stem and root length or fresh/dry weight. Cucumber seeds were coated with the purified molecule solutions and/or spore suspension, transferred into Petri dishes and left to germinate on humid filter paper. Germinated seedlings were transplanted into pots containing sterilised soil. Other two treatments with the purified molecules were performed at 7 days interval, by drenching the soil with the solutions at the final concentrations of 10^−8M for HYTLO1, and 1 ml of a 10^7 spore/ml suspension per 10 ml soil. In two-compounds application, half dose of each molecule was used. Each treatments was performer on at least 8 plants, and results were collected 20 days after seed coating. This experiment confirmed the beneficial effect exerted by HYTLO1 alone and in combination with Trichoderma species on plant growth. […] In particular, and only as an example, combined treatment with T. harzianum T22+HYTLO1, and T. harzianum strain TH1+HYTLO1 determined a significant increase in plant growth promotion effect of up to 33% more compared to controls (synergistic results as by the Limpel's formula are underlined in the Table).

tomato plants = assay: tomato plant growth, watering and spraying; type: in vivo; settings: 0.01 μM, once per week for one month; vs T. harzianum T22, GERMON E and untreated control
From the text: FIG. 10: Effect of HYTLO1 on tomato plant growth as compared to treatment with T. harzianum strain T22 or the Commercial product GERMON E (G-E) base on the auxin 1-naphthaleneacetic acid, commercialized by L. Gobbi, Italy. (A) Growth increase of root and stem of HYTLO1 vs. water control, GERMON E or T22, 10 days after treatment. (B) Increase of root development (HYTLO1 treatment on the left, untreated control on the right), (C) Effect of HYTLO1 on plant size compared to T22. (D) Effect of HYTLO1 on root development compared to water control, T22, GERMON E (also in combination with HYTLO1). HYTLO1 was applied at final concentration in the soil at 10^−8 M.
FIG. 11: Effect of purified HYTLO1 on tomato plants, applied by drench on the roots or by spraying on the leaves. For the irrigation, 50 ml of a solution containing 0.072 μg/ml of HYTLO1 (0.01 μM) were applied for each pot containing 1 litre of soil and 2 tomato plants, for a total of 4 applications. For foliar application, 20 ml of a solution containing 0.072 μg/ml (0.01 μM) of HYTLO1 were sprayed for each pot containing 2 tomato plants for a total of 4 applications. […]

B. cinerea = assay: ELISA-based inhibition assay of B. cinerea growth; type: cell-based, Botrytis cinerea; settings: compared to hydrophobins from T. harzianum strains T22 and M10
From the text: FIG. 4. Antifungal effect of HYTLO1 on B. cinerea growth compared to similar hydrophobins purified from T. harzianum strain T22 and T. harzianum strain M10. Assay protocol is described in Lorito M. et al. 1994. Microbiology UK, 140:623-629. Numbers on the left side indicate micro molar concentration of HYTLO1 used. T22 and M10=hydrophobin from strain T22 and M10, respectively. The inhibition of the pathogen colony is indicated by the reduced intensity of the dark color in the wells compared to control (C).

Substance: HYTLO1: about 7 KDa Type II hydrophobin protein from Trichoderma longibrachiatum strain MK1, 71 aa, SEQ ID NO: 1
- effect on germination of spores (Botrytis cinerea): direct inhibitory effect
- effect on germination of spores (Alternaria spp.): direct inhibitory effect
- concentration promoting root growth and development (tomato; assays on cuttings): ≥ 0.31 µM
- de novo root formation on tomato cuttings (tomato; cuttings dipped in 0.075 and 0.018 μM, after 15 days, no roots in controls): formed de novo roots
- root apparatus of plantlets vs untreated control (tomato; tomato seeds germinated with HYTLO1 10^−6 to 10^−9 M, data not shown): more than double
- growth promotion effect (percentage seed germination) (Cucumis sativus): confirmed
- plant height (cm), percentage increase compared to water control (cucumber; 10^−8M HYTLO1, 10^7 spore/ml, half dose in combinations, SD +− 1.5): 1.8%
- Root length (cm), percentage increase compared to water control (cucumber; SD +− 2.0): 8.5%
- Plant fresh weight (g), percentage increase compared to water control (cucumber; SD +− 2.8): 4.2%
- Plant dry weight (g), percentage increase compared to water control (cucumber; SD +− 3.1): 7.3%
- growth parameters (plant height and length, root length and weight, number of leaves, stem diameter and weight) (tomato plants): increased all of the growth parameters
- antifungal effect on B. cinerea growth (B. cinerea): strong antifungal effect
